One data set deals with P. falciparum 3D7. Briefly: Antiplasmodial SYBR Green I proliferation assay, P. falciparum 3D7. Type of data set: cell-based, Plasmodium falciparum. Conditions: Plasmodium falciparum, 3D7, 96 h, 96 h; values in brackets 95% confidence intervals; read-out: IC50 Pf3D7. The source says:
Antiplasmodial activity against P. falciparum 3D7 (A, C and E) and P. falciparum Dd2 (B, D, F). […] Curves were plotted using non-linear regression based on means from three independent experiments measured in triplicate. Error bars indicate standard deviation, whose values are provided in the respective table.
Plasmodium falciparum culture and antiplasmodial activity. […] Development, parasitaemia, and morphology of parasites were monitored by light microscopy of thin blood smears stained according to the Romanowsky method (Panótico Rápido staining kit; Laborclin, Pinhais, Paraná, Brazil). […] Fresh 0^+ blood was generously provided by “Hospital Novo Atibaia” (Atibaia, SP, Brazil), and approved by the ethics committee at ICB-USP. The antiplasmodial effect of all compounds was validated against P. falciparum 3D7 strain conducting SYBR Green I (Invitrogen) drug assays as previously reported[30],[46] as a modification of the original procedure. […] Parasite proliferation was measured by the DNA load via fluorescence, using 100 μL of a lysis buffer with SYBR Green I (0.02% v/v) and incubated for 1 h at room temperature in the dark. […] Focal and gain adjustment was performed using the non-treated controls (highest expected fluorescence signal). Data was acquired via the CLARIOstar (V5.20) and MARS software, manually scaled to 0–100%, and plotted using GraphPad Prism (v9.5.2 for Windows, GraphPad Software, La Jolla California USA, www.graphpad.com). Non-treated parasites, the highest solvent concentration on parasites, CQ on parasites, and the highest drug concentration in the medium were used as controls for maximal growth, solvent control, positive biological control, and native drug fluorescence, respectively.

For another data set, the system named is HepG2 cells. Briefly: Cytotoxicity in human HepG2 cells (WST-1). Type of data set: cell-based. As to conditions: Homo sapiens, HepG2; 48 h, WST-1; read-out: IC50 HepG2. The method, then:
Cytotoxicity in human HepG2 cells.[47] […] Cytotoxic effects of compounds were assessed using the cell proliferation reagent WST-1 (Roche; CELLPRO-RO) in a 96-well plate-based screening assay. HepG2 cells were seeded at 10^4 cells/well (100 μL) in 96-well flat-bottom plates (Sarstedt) the night before the experiment to allow attachment of cells. The next day, two-fold serial dilutions of compounds were prepared in fresh medium in an extra plate, and the medium of cells was replaced by the medium containing the compound dilutions. Non-treated cells (max. proliferation), cells treated with the maximal solvent concentration (DMSO; solvent control), and medium with the maximal compound concentration (native absorbance) used as controls. […] Subsequently, 10 μL WST-1 was added to each well and plates were incubated for additional 4 h under standard conditions. WST-1 is a tetrazolium salt and is metabolised by the mitochondrial succinate-tetrazolium-reductase system of living cells and forms formazan, whose absorbance was measured at 450 nm. Absorbance at 630 nm was assessed to check for protein and precipitation background. Both measurements were acquired via the CLARIOstar (V5.20) and MARS software, manually scaled to 0–100%, and plotted with GraphPad Prism (version 9.5.2 for Windows, GraphPad Software, La Jolla California USA).
On the technique in general: Formazan colour is commonly taken as a measure of viable cells.

For a further data set, the target named is T1, human HDAC1 (Homo sapiens, UniProt Q13547).
T1 construct: purchased ENZO Life Sciences AG (Lausen, CH)
Briefly: In vitro HDAC enzymatic assay, HDAC1. As to conditions: mean ± SD. Type of data set: biochemical. The procedure:
(§1) In vitro HDAC enzymatic assays. Recombinant human HDAC1 and HDAC6 were purchased from ENZO Life Sciences AG (Lausen, CH) whereas HDAC8 was produced as described before. In vitro testing of the inhibitors in an enzymatic assay was carried out as described in previous publications[32],[33]. For HDAC1 a fluorogenic peptide derived from p53 (Ac-RHKK(Acetyl)-AMC) was used. For HDAC6, the substrate (Abz-SRGGK(thio-TFA)FFRR-NH2) was used as described before.

In a further data set the target is T2, human HDAC6 (Homo sapiens, UniProt Q9UBN7).
T2 construct: purchased ENZO Life Sciences AG (Lausen, CH)
T2 sequence (Q9UBN7 1-1215): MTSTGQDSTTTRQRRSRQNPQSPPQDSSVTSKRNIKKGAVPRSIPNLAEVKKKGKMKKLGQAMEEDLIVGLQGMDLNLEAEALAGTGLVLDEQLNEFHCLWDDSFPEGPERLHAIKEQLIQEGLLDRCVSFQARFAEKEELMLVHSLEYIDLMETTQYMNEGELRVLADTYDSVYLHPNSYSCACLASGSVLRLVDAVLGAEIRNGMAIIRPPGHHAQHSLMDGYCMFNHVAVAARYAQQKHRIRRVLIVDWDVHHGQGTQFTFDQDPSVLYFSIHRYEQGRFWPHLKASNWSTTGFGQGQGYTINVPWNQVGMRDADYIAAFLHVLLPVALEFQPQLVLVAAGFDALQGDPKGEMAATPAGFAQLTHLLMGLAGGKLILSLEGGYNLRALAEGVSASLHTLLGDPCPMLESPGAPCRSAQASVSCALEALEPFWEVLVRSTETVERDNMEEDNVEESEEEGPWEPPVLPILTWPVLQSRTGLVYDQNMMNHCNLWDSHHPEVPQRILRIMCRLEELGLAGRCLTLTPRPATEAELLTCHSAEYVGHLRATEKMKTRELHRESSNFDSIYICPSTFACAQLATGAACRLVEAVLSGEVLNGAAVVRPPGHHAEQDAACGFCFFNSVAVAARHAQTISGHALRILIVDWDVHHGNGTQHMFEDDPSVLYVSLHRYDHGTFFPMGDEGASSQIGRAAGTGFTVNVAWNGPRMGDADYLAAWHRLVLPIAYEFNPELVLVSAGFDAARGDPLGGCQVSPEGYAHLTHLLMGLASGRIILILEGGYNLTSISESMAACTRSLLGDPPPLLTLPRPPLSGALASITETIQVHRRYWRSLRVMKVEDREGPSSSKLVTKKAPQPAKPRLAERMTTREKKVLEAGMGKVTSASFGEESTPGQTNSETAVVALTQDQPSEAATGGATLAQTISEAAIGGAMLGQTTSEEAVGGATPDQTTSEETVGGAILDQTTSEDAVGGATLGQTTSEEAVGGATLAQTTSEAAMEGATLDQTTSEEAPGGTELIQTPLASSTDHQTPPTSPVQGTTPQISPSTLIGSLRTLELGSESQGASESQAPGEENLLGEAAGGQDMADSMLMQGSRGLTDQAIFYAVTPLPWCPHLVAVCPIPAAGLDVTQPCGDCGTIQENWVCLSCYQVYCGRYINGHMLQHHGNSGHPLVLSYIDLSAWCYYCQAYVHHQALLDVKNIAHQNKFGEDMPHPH
Briefly: In vitro HDAC enzymatic assay, HDAC6. Conditions: for IC50: mean ± SD; for HDAC1/6 SI: ratio HsHDAC1 IC50/HsHDAC6 IC50. Type of data set: biochemical. The procedure: as §1

The target in a further data set is T3, HDAC8 (Homo sapiens, UniProt Q9BY41).
T3 construct: made in house
T3 sequence (Q9BY41 1-377): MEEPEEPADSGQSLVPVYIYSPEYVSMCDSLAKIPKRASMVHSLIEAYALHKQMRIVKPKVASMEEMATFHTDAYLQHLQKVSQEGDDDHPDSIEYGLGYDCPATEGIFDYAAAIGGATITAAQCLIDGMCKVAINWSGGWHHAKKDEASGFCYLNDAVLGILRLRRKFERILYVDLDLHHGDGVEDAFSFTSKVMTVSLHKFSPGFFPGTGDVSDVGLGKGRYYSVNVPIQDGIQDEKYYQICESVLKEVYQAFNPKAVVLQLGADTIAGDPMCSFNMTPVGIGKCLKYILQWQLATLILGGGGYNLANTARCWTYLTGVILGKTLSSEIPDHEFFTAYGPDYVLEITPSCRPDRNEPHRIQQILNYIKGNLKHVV
Briefly: In vitro HDAC enzymatic assay, HDAC8. Type of data set: biochemical. As to conditions: mean ± SD. The method, then: as §1

Data set [1] is described as follows: Stability in human hepatic microsomes. Type of data set: in vitro ADME. The source says:
(§2) DMPK evaluation. […].

A short description of data set [2]: Stability in mouse hepatic microsomes. Type of data set: in vitro ADME.
Description: as §2

T1 sequence (Q13547 whole entry): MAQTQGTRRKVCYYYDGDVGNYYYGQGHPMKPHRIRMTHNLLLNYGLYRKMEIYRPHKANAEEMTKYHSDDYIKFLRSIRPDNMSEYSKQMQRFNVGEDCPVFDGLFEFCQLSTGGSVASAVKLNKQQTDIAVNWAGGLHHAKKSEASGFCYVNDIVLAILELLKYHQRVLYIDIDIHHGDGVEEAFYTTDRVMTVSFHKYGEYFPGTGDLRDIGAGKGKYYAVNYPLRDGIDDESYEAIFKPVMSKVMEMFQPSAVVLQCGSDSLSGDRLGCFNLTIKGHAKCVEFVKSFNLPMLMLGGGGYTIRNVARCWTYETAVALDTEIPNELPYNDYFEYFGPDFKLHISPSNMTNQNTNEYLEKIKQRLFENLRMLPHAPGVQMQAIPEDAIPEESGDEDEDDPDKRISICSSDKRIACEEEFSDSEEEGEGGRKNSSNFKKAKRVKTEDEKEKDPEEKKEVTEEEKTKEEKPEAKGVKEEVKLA

Regarding `O=C(Nc1ccc(OC(F)(F)F)cc1)Nc1ccc(C(=O)NO)cc1` [8 g, N-hydroxy-4-(3-(4-(trifluoromethoxy)phenyl)ureido)benzamide], the results for the IC50 in the data set on P. falciparum 3D7 and with HepG2 cells were 13900 nM and 60500 nM, respectively.

In turn, `N/C(=N\O)c1ccc(NC(=O)Nc2ccc(C(=O)NO)cc2)cc1` [8 h, (Z)-N-hydroxy-4-(3-(4-(N'-hydroxycarbamimidoyl)phenyl)ureido)benzamide] came in with a melting point of 97 to 99 °C. Moreover, the IC50 with P. falciparum 3D7 was found to be 390 nM. Besides, the IC50 in the data set with HepG2 cells is greater than 200000 nM. For the same compound, the IC50 against human HDAC1 turned out to be 8300 ± 481 nM. On human HDAC6, the IC50 was determined as 21.3 ± 0.5 nM and the “HDAC1/6 SI” value is 390. On HDAC8, the IC50 turned out to be 164 ± 9.1 nM.

Consider `N#Cc1ccc(NC(=O)Nc2ccc(C(=O)NO)cc2)cc1` [8 k, 4-(3-(4-cyanophenyl)ureido)-N-hydroxybenzamide], for which the melting point lay in the range of 220 to 222 °C. Moreover, in the data set with P. falciparum 3D7, the IC50 was determined as 260 nM. Besides, in the data set with HepG2 cells, the IC50 was greater than 200000 nM. The compound also displayed an IC50 against human HDAC1 of 3750 ± 563 nM. Further, at human HDAC6, the IC50 turned out to be 11.6 ± 0.2 nM and the “HDAC1/6 SI” value was 323. Besides, the IC50 against HDAC8 is 51.5 ± 6.1 nM.

Consider `O=C(/C=C/c1ccc(NC(=O)Nc2ccc(Cl)cc2)cc1)NO` [Compound 6b, (E)-3-(4-(3-(4-chlorophenyl)ureido)phenyl)-N-hydroxyacrylamide], for which the IC50 in the data set on P. falciparum 3D7 worked out at 7880 nM; with HepG2 cells, 28800 nM; against human HDAC6 it was 14.3 ± 2.2 nM.

`O=C(/C=C/c1ccc(NC(=O)Nc2ccc([N+](=O)[O-])cc2)cc1)NO` [Compound 6d, (E)-N-hydroxy-3-(4-(3-(4-nitrophenyl)ureido)phenyl)acrylamide] showed a melting point of 167 to 168 °C. Also, in the data set on P. falciparum 3D7, the IC50 came out at 1260 nM. Moreover, the IC50 with HepG2 cells is 10400 nM. At human HDAC1, this compound returned an IC50 of 1110 ± 56.3 nM. In addition, at human HDAC6, the IC50 is 9 ± 0.7 nM and the “HDAC1/6 SI” value is recorded as 124. On HDAC8, this compound showed an IC50 of 99.1 ± 10.9 nM.

As to `O=C(CCc1ccc(NC(=O)Nc2ccc(Cl)cc2)cc1)NO` [Compound 7b, 3-(4-(3-(4-chlorophenyl)ureido)phenyl)-N-hydroxypropanamide], the melting point was 286 °C (dec.). In addition, the IC50 in the data set with P. falciparum 3D7 worked out at 7040 nM. In the data set with HepG2 cells, the IC50 is greater than 50000 nM. The compound also gave an IC50 against human HDAC1 of 4780 ± 446 nM. In addition, on human HDAC6, inhibition was half-maximal at 185 ± 21.6 nM (IC50) and the “HDAC1/6 SI” value is 26. At HDAC8, this compound yielded an IC50 of 568 ± 40.5 nM.

As to `Cc1ccc(NC(=O)Nc2ccc(C(=O)NO)cc2)cc1` [Compound 8e, N-hydroxy-4-(3-(p-tolyl)ureido)benzamide], the results for the IC50 in the data set with P. falciparum 3D7 and with HepG2 cells were 340 nM and greater than 200000 nM, respectively.

For `O=C(Nc1ccc(F)cc1)Nc1ccc(C(=O)NO)cc1` [Compound 8f., 4-(3-(4-fluorophenyl)ureido)-N-hydroxybenzamide], the IC50 in the data set on P. falciparum 3D7 came out at 400 nM; in the data set with HepG2 cells it was 116000 nM.

As to `O=C(Nc1ccc(C(=O)NO)cc1)Nc1ccc(C(F)(F)F)cc1` [Compound 8i, N-hydroxy-4-(3-(4-(trifluoromethyl)phenyl)ureido)benzamide], the figures for the IC50 in the data set with P. falciparum 3D7 and in the data set on HepG2 cells were 1300 nM and 25100 nM, respectively.

In the case of `Nc1ccc(NC(=O)Nc2ccc(C(=O)NO)cc2)cc1` [Compound 8j, 4-(3-(4-aminophenyl)ureido)-N-hydroxybenzamide], the figures for the IC50 in the data set with P. falciparum 3D7 and with HepG2 cells were 350 nM and greater than 200000 nM, respectively.

On to `Nc1ccc(C(=O)NO)cc1` [Compound 15, 4-amino-N-hydroxybenzamide], for which the IC50 in the data set with P. falciparum 3D7 is 6300 nM; in the data set with HepG2 cells, greater than 200000 nM.

`CCN(CC)CCNC(=O)c1c(C)[nH]c(/C=C2\C(=O)Nc3ccc(F)cc32)c1C` [Sunitinib, reference compound]: the half-life at 1 µM in data set [1] (1 mg/mL hepatic microsomes, 1 µM compound, read-out: Half-life t1/2 Human) amounted to 22.3 min; in data set [2] (1 mg/mL hepatic microsomes, 1 µM compound, read-out: Half-life t1/2 Mouse) it was 9.1 min. Also, the figures for the microsomal CLint at 1 µM in data set [1] (read-out: Intrinsic clearance Clint Human) and in data set [2] (read-out: Intrinsic clearance Clint Mouse) were 31 µL/min/mg and 76 µL/min/mg, respectively.

The term IC50 denotes the concentration that inhibits the measured activity by half. A word on the melting point: it is the temperature, or range, at which the solid turns liquid.

Source of the values: paper PMC10687260, “1,3-Diphenylureido hydroxamate as a promising scaffold for generation of potent antimalarial histone deacetylase inhibitors” (Scientific Reports, 2023).
